The source of these data is patent publication US10894784B2, “Heteroarylbenzimidazole compounds” (BAYER PHARMA AKTIENGESELLSCHAFT, priority 2015, dated 2021).

The target in this assay is TBK1 (Homo sapiens (Human), UniProt Q9UHD2). Put plainly: TBK1 low ATP kinase assay (in vitro assay 1). The settings on record: in vitro assay 1, read-out: TBK1 low ATP kinase assay IC50. The format is biochemical.
TBK1, sequence (Q9UHD2 whole entry): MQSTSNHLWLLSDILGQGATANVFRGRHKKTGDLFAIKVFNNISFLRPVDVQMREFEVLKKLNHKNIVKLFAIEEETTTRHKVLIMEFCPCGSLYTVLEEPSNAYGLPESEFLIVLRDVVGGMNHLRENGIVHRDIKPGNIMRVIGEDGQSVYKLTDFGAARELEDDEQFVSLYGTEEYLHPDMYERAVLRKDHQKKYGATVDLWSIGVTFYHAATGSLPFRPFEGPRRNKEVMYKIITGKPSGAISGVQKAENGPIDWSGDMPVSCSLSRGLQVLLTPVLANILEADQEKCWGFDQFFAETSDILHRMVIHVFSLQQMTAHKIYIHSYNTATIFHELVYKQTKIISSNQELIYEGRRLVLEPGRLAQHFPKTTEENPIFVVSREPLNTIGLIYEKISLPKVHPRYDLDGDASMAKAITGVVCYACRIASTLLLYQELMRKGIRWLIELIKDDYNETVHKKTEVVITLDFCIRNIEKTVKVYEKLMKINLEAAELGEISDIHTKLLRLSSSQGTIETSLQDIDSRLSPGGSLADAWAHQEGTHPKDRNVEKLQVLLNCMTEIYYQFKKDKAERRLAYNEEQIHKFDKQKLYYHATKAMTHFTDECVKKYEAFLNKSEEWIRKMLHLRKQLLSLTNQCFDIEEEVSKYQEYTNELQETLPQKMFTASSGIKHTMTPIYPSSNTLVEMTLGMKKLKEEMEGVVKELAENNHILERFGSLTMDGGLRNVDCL

With `CCn1cc(-c2ccc3nc(Nc4cc(CN5CCN(C(=O)CC(F)(F)F)CC5)ccn4)[nH]c3c2OCC(C)C)cn1` [Example 52.01, 1-{4-[(2-{[6-(1-ethyl-1H-pyrazol-4-yl)-7-(2-methylpropoxy)-1H-benzimidazol-2-yl]amino}pyridin-4-yl)methyl]piperazin-1-yl}-3,3,3-trifluoropropan-1-one], the IC50 (usually the concentration that gives 50% inhibition) was found to be 64.7 nM.

On to `CC(O)c1cc(-c2ccc3nc(Nc4cc(CN5CCN(C(=O)OC(C)(C)C)CC5)ccn4)[nH]c3c2)ncn1` (racemic) [Example 97.01, (rac)-tert-butyl 4-({2-[(6-{6-[1-hydroxyethyl]pyrimidin-4-yl}-1H-benzimidazol-2-yl)amino]pyridin-4-yl}methyl)piperazine-1-carboxylate], for which the IC50 was 21 nM. On to `CN(C)c1cnc(-c2ccc3nc(Nc4cc(CN5CCN(C(=O)OC(C)(C)C)CC5)ccn4)[nH]c3c2)cn1` [Example 144.01, tert-butyl 4-{[2-({6-[5-(dimethylamino)pyrazin-2-yl]-1H-benzimidazol-2-yl}amino)pyridin-4-yl]methyl}piperazine-1-carboxylate], for which the IC50 came to 510 nM.

For the compound `Cc1ncnc(-c2ccc3nc(Nc4cc(CN5CCN(C(=O)CC(F)(F)F)CC5)ccn4)[nH]c3c2)c1C` [Example 32.02, 1-{4-[(2-{[6-(5,6-dimethylpyrimidin-4-yl)-1H-benzimidazol-2-yl]amino}pyridin-4-yl)methyl]piperazin-1-yl}-3,3,3-trifluoropropan-1-one], the IC50 came to 1170 nM. Then `CC(C)Cc1nc(-c2ccc3nc(Nc4cc(CN5CCN(C(=O)CC(F)(F)F)CC5)ccn4)[nH]c3c2)n(C)n1` [Example 42.02, 3,3,3-trifluoro-1-(4-{[2-({6-[1-methyl-3-(2-methylpropyl)-1H-1,2,4-triazol-5-yl]-1H-benzimidazol-2-yl}amino)pyridin-4-yl]methyl}piperazin-1-yl)propan-1-one], with 397 nM.

Take `COc1cncnc1-c1ccc2nc(Nc3cc(C(C)N4CCN(C(=O)C5CC5)CC4)ccn3)[nH]c2c1` (single isomer, unassigned) [Example 35.03.03.B, cyclopropyl{4-[(1S or 1R)-1-(2-{[6-(5-methoxypyrimidin-4-yl)-1H-benzimidazol-2-yl]amino}pyridin-4-yl)ethyl]piperazin-1-yl}methanone]: the IC50 was determined as 31.7 nM. In the case of `COc1c(-c2ccc3nc(Nc4cc(C(C)N5CCN(C(=O)CC(F)(F)F)CC5)ccn4)[nH]c3c2)ncnc1N1CCCC1` (single isomer, unassigned) [Example 112.03, 3,3,3-trifluoro-1-(4-{(1R or 1S)-1-[2-({6-[5-methoxy-6-(pyrrolidin-1-yl)pyrimidin-4-yl]-1H-benzimidazol-2-yl}amino)pyridin-4-yl]ethyl}piperazin-1-yl)propan-1-one], the 50% inhibitory concentration (IC50) is 1.4 nM. Then `CC(O)c1cc(-c2ccc3nc(Nc4cc(CN5CCN(C(=O)CC(F)(F)F)CC5)ccn4)[nH]c3c2)ncn1` (racemic) [Example 97.02, (rac)-3,3,3-trifluoro-1-[4-({2-[(6-{6-[1-hydroxyethyl]pyrimidin-4-yl}-1H-benzimidazol-2-yl)amino]pyridin-4-yl}methyl)piperazin-1-yl]propan-1-one], with 18 nM; and `COc1c(Cl)ncnc1-c1ccc2nc(Nc3cc(CN4CCN(C(=O)OC(C)(C)C)CC4)ccn3)[nH]c2c1` [Compound 60.01, tert-butyl 4-[(2-{[6-(6-chloro-5-methoxypyrimidin-4-yl)-1H-benzimidazol-2-yl]amino}pyridin-4-yl)methyl]piperazine-1-carboxylate], with 110 nM; and `CC(c1ccnc(Nc2nc3ccc(-c4cnn(CC5CCC5)c4)c(Cl)c3[nH]2)c1)N1CCN(C(=O)OC(C)(C)C)CC1` (single isomer, unassigned) [Example 75.01, tert-butyl 4-{(1R or 1S)-1-[2-({7-chloro-6-[1-(cyclobutylmethyl)-1H-pyrazol-4-yl]-1H-benzimidazol-2-yl}amino)pyridin-4-yl]ethyl}piperazine-1-carboxylate], with 20 nM.
